Among the data in patent publication US8648081B2 (Eli Lilly and Company, priority 2011, dated 2014) are mortality values, retold here.

Like-named read-outs stand apart in the source and are kept apart here.

In this assay the test system is Lone star tick larvae (Amblyomma americanum). Kind of assay: In Vitro Larval Immersion Microassay (LIM). The following applies: read-out: % Efficacy (percent larval mortality). Here is the method:
In Vitro Larval Immersion Microassay (LIM)
The larval immersion microassay may be conducted as described in White, et al., J. Med. Entomol. […] Briefly, experimental test articles are formulated in dimethylsulfoxide (DMSO) to prepare a stock solution at a concentration of 10 mM. […] Approximately 30-50 Lone star tick larvae (Amblyomma americanum) are submerged into each well containing experimental test articles. After a 30 minute immersion period, larvae are removed with a wide-bore pipette tip in 0.05 ml of fluid, dispensed into a commercial paper tissue biopsy bag which is sealed at the top with a plastic dialysis clip, inverted and allowed to air dry for 60 minutes. Bags containing larvae are then incubated at approximately 27 degrees Celsius and >90% relative humidity. After 24 hours, bags are opened, live and dead larvae are counted and percent larval mortality is calculated as follows: % Efficacy=(# dead larvae)/(# total larvae)×100.

With `O=C(CNC(=O)c1sc(C2=NOC(c3cc(Cl)c(F)c(Cl)c3)(C(F)(F)F)C2)c2c1CCC2)NCC(F)(F)F` (stereo not drawn) [Example 57, 3-(5-(3,5-dichloro-4-fluorophenyl)-5-(trifluoromethyl)-4,5-dihydroisoxazol-3-yl)-N-(2-oxo-2-(2,2,2-trifluoroethylamino)ethyl)-5,6-dihydro-4H-cyclopenta[c] thiophene-1-carboxamide], the mortality at 300 µM is no less than 80%. Consider `O=C(N[C@@H]1CCNC1=O)c1sc(C2=NOC(c3cc(Cl)c(F)c(Cl)c3)(C(F)(F)F)C2)c2c1CCC2` (stereo partly drawn) [Example 58, 3-(5-(3,5-dichloro-4-fluorophenyl)-5-(trifluoromethyl)-4,5-dihydroisoxazol-3-yl)-N-((R)-2-oxopyrrolidin-3-yl)-5,6-dihydro-4H-cyclopenta[c] thiophene-1-carboxamide], for which the mortality at 300 µM was no less than 80%. Same read-out and setting: the figure for `N#CCNC(=O)CNC(=O)c1sc(C2=NOC(c3cc(Cl)c(F)c(Cl)c3)(C(F)(F)F)C2)c2c1CCC2` (stereo not drawn) [Example 59, N-(2-(cyanomethyl-amino)-2-oxoethyl)-3-(5-(3,5-dichloro-4-fluorophenyl)-5-(trifluoromethyl)-4,5-dihydroisoxazol-3-yl)-5,6-dihydro-4H-cyclopenta[c] thiophene-1-carboxamide] is no less than 80%. For `O=C(NC1CCN(CC(F)(F)F)C1=O)c1sc(C2=NOC(c3cc(Cl)c(F)c(Cl)c3)(C(F)(F)F)C2)c2c1CCC2` (stereo not drawn) [Example 60, 3-(5-(3,5-dichloro-4-fluorophenyl)-5-(trifluoromethyl)-4,5-dihydroisoxazol-3-yl)-N-(2-oxo-1-(2,2,2-trifluoroethyl)pyrrolidin-3-yl)-5,6-dihydro-4H-cyclopenta[c] thiophene-1-carboxamide], the mortality at 300 µM was no less than 80%. For the compound `C#CCNC(=O)CNC(=O)c1sc(C2=NOC(c3cc(Cl)c(F)c(Cl)c3)(C(F)(F)F)C2)c2c1CCC2` (stereo not drawn) [Example 61, 3-(5-(3,5-dichloro-4-fluorophenyl)-5-(trifluoromethyl)-4,5-dihydroisoxazol-3-yl)-N-(2-oxo-2-(prop-2-ynylamino)ethyl)-5,6-dihydro-4H-cyclopenta[c] thiophene-1-carboxamide], the mortality at 300 µM was no less than 80%. On the same count and under the same terms, the figure for `O=C(CNC(=O)c1sc(C2=NOC(c3cc(Cl)cc(Cl)c3)(C(F)(F)F)C2)c2c1CCCC2)NCC(F)(F)F` (stereo not drawn) [Example 62, 3-(5-(3,5-dichloro-phenyl)-5-(trifluoro-methyl)-4,5-dihydro-isoxazol-3-yl)-N-(2-oxo-2-(2,2,2-trifluoroethylamino)ethyl)-4,5,6,7-tetrahydrobenzo[c] thiophene-1-carboxamide] is no less than 80%. Same read-out and setting: the figure for `CCNC(=O)CNC(=O)c1sc(C2=NOC(c3cc(Cl)cc(Cl)c3)(C(F)(F)F)C2)c2c1CCCC2` (stereo not drawn) [Example 63, 3-(5-(3,5-dichloro-phenyl)-5-(trifluoro-methyl)-4,5-dihydro-isoxazol-3-yl)-N-(2-(ethylamino)-2-oxoethyl)-4,5,6,7-tetrahydrobenzo [c]thiophene-1-carboxamide] is no less than 80%; for `O=C(NCC1CCCO1)c1sc(C2=NOC(c3cc(Cl)cc(Cl)c3)(C(F)(F)F)C2)c2c1CCCC2` (stereo not drawn) [Example 64, 3-(5-(3,5-dichloro-phenyl)-5-(trifluoro-methyl)-4,5-dihydro-isoxazol-3-yl)-N-((tetrahydrofuran-2-yl)methyl)-4,5,6,7-tetrahydro-benzo[c]thiophene-1-carboxamide] it is no less than 80%. As to `CSCCNC(=O)c1sc(C2=NOC(c3cc(Cl)cc(Cl)c3)(C(F)(F)F)C2)c2c1CCCC2` (stereo not drawn) [Example 65, 3-(5-(3,5-dichloro-phenyl)-5-(trifluoro-methyl)-4,5-dihydro-isoxazol-3-yl)-N-(2-(methylthio)ethyl)-4,5,6,7-tetra-hydrobenzo[c] thiophene-1-carboxamide], the mortality at 300 µM was no less than 80%. On to `O=C(NCCC(F)(F)F)c1sc(C2=NOC(c3cc(Cl)cc(Cl)c3)(C(F)(F)F)C2)c2c1CCCC2` (stereo not drawn) [Example 66, 3-(5-(3,5-dichloro-phenyl)-5-(trifluoro-methyl)-4,5-dihydro-isoxazol-3-yl)-N-(3,3,3-trifluoropropyl)-4,5,6,7-tetrahydrobenzo[c] thiophene-1-carboxamide], for which the mortality at 300 µM was no less than 80%. For the compound `O=C(NC1CCCC(O)C1)c1sc(C2=NOC(c3cc(Cl)cc(Cl)c3)(C(F)(F)F)C2)c2c1CCCC2` (stereo not drawn) [Example 67, 3-(5-(3,5-dichloro-phenyl)-5-(trifluoro-methyl)-4,5-dihydro-isoxazol-3-yl)-N-(3-hydroxycyclohexyl)-4,5,6,7-tetrahydrobenzo [c]thiophene-1-carboxamide], the mortality at 300 µM was no less than 80%. Regarding `O=C(Nc1ccc(F)cn1)c1sc(C2=NOC(c3cc(Cl)cc(Cl)c3)(C(F)(F)F)C2)c2c1CCCC2` (stereo not drawn) [Example 68, 3-(5-(3,5-dichloro-phenyl)-5-(trifluoro-methyl)-4,5-dihydro-isoxazol-3-yl)-N-(5-fluoropyridin-2-yl)-4,5,6,7-tetrahydro-benzo[c]thiophene-1-carboxamide], the mortality at 300 µM is no less than 80%. As for `O=C(NC1CCCOC1)c1sc(C2=NOC(c3cc(Cl)cc(Cl)c3)(C(F)(F)F)C2)c2c1CCCC2` (stereo not drawn) [Example 69], the mortality at 300 µM was no less than 80%. `O=C(NC1CSC1)c1sc(C2=NOC(c3cc(Cl)cc(Cl)c3)(C(F)(F)F)C2)c2c1CCCC2` (stereo not drawn) [Example 70, 3-(5-(3,5-dichloro-phenyl)-5-(trifluoro-methyl)-4,5-dihydro-isoxazol-3-yl)-N-(thietan-3-yl)-4,5,6,7-tetrahydrobenzo[c] thiophene-1-carboxamide]: the mortality at 300 µM was no less than 80%. As to `O=C(NC1CCOCC1)c1sc(C2=NOC(c3cc(Cl)cc(Cl)c3)(C(F)(F)F)C2)c2c1CCCC2` (stereo not drawn) [Example 71, 3-(5-(3,5-dichloro-phenyl)-5-(trifluoro-methyl)-4,5-dihydro-isoxazol-3-yl)-N-(tetrahydro-2H-pyran-4-yl)-4,5,6,7-tetrahydrobenzo [c]thiophene-1-carboxamide], the mortality at 300 µM was no less than 80%. With `O=C(NC1CCN(C2CC2)C1=O)c1sc(C2=NOC(c3cc(Cl)cc(Cl)c3)(C(F)(F)F)C2)c2c1CCCC2` (stereo not drawn) [Example 72], the mortality at 300 µM is no less than 80%. On to `C#CCNC(=O)CNC(=O)c1sc(C2=NOC(c3sc(Cl)c(Cl)c3Cl)(C(F)(F)F)C2)c2c1CCCC2` (stereo not drawn) [Example 74, N-(2-oxo-2-(prop-2-ynylamino)ethyl)-3-(5-(3,4,5-trichloro-thiophen-2-yl)-5-(trifluoromethyl)-4,5-dihydroisoxazol-3-yl)-4,5,6,7-tetrahydro-benzo[c]thiophene-1-carboxamide], for which the mortality at 300 µM (tested at 300 micromolar, 30 minute immersion, mortality counted after 24 hours) was no less than 80%. Take `O=C(NC1CCS(=O)(=O)CC1)c1sc(C2=NOC(c3cc(Cl)c(Cl)c(Cl)c3)(C(F)(F)F)C2)c2c1CCCC2` (stereo not drawn) [Example 75, 3-[5-(3,4,5-Trichloro-phenyl)-5-trifluoro-methyl-4,5-dihydro-isoxazol-3-yl]-4,5,6,7-tetrahydro-benzo[c]thiophene-1-carboxylic acid (1,1-dioxo-hexahydro-thiopyran-4-yl)-amide]: the mortality at 300 µM is no less than 80%. As for `O=C(NC1CCN(CC(F)(F)F)C1=O)c1sc(C2=NOC(c3cc(Cl)c(Cl)c(Cl)c3)(C(F)(F)F)C2)c2c1CCCC2` (stereo not drawn) [Example 76, N-(2-oxo-1-(2,2,2-trifluoroethyl)pyrrolidin-3-yl)-3-(5-(3,4,5-trichloro-phenyl)-5-(trifluoro-methyl)-4,5-dihydro-isoxazol-3-yl)-4,5,6,7-tetrahydro-benzo[c]thiophene-1-carboxamide], the mortality at 300 µM was no less than 80%. For the compound `O=C(NC1CCOCC1)c1sc(C2=NOC(c3cc(Cl)c(Cl)c(Cl)c3)(C(F)(F)F)C2)c2c1CCCC2` (stereo not drawn) [Example 77, N-(tetrahydro-2H-pyran-4-yl)-3-(5-(3,4,5-trichlorophenyl)-5-(trifluoromethyl)-4,5-dihydroisoxazol-3-yl)-4,5,6,7-tetrahydrobenzo[c] thiophene-1-carboxamide], the mortality at 300 µM is no less than 80%. On the same count and under the same terms, the figure for `O=C(NC1CCN(C2CC2)C1=O)c1sc(C2=NOC(c3cc(Cl)c(Cl)c(Cl)c3)(C(F)(F)F)C2)c2c1CCCC2` (stereo not drawn) [Example 78, N-(1-cyclopropyl-2-oxopyrrolidin-3-yl)-3-(5-(3,4,5-trichloro-phenyl)-5-(trifluoro-methyl)-4,5-dihydro-isoxazol-3-yl)-4,5,6,7-tetrahydrobenzo[c] thiophene-1-carboxamide] is no less than 80%; for `O=C(NC1CS(=O)(=O)C1)c1sc(C2=NOC(c3cc(Cl)c(F)c(Cl)c3)(C(F)(F)F)C2)c2c1CCCC2` (stereo not drawn) [Example 79, 3-[5-(3,5-Dichloro-4-fluoro-phenyl)-5-trifluoromethyl-4,5-dihydro-isoxazol-3-yl]-4,5,6,7-tetrahydro-benzo[c]thiophene-1-carboxylic acid (1,1-dioxo-thietan-3-yl)-amide] it is no less than 80%. On to `O=C(NC1CCS(=O)(=O)CC1)c1sc(C2=NOC(c3cc(Cl)c(F)c(Cl)c3)(C(F)(F)F)C2)c2c1CCCC2` (stereo not drawn) [Example 80, 3-[5-(3,5-Dichloro-4-fluoro-phenyl)-5-trifluoromethyl-4,5-dihydro-isoxazol-3-yl]-4,5,6,7-tetrahydro-benzo[c] thiophene-1-carboxylic acid (1,1-dioxo-hexahydro-thiopyran-4-yl)-amide], for which the mortality at 300 µM was no less than 80%.

As for `O=C1CCC(NC(=O)c2sc(C3=NOC(c4cc(Cl)c(F)c(Cl)c4)(C(F)(F)F)C3)c3c2CCCC3)CC1` (stereo not drawn) [Example 81, 3-(5-(3,5-dichloro-4-fluorophenyl)-5-(trifluoromethyl)-4,5-dihydroisoxazol-3-yl)-N-(4-oxocyclohexyl)-4,5,6,7-tetrahydrobenzo [c]thiophene-1-carboxamide], the mortality at 300 µM was no less than 80%.
